# Assay results reported in paper PMC11923902, “Structural Insights into the Substrate Recognition of Ginsenoside Glycosyltransferase Pq3‐O‐UGT2” (Advanced Science, 2025).
# Molecular target: T1, Pq3-O-UGT2 (Panax quinquefolius, UniProt A0A0M4ME80)
# T1 construct: pET-28a, C-terminal TEV site and 6xHis tag, E. coli Rosetta (DE3); Ni-NTA, HiTrap Q, Mono Q, Superdex 200; monomer; domains a.a; 1-442
# T1 sequence (A0A0M4ME80 1-442): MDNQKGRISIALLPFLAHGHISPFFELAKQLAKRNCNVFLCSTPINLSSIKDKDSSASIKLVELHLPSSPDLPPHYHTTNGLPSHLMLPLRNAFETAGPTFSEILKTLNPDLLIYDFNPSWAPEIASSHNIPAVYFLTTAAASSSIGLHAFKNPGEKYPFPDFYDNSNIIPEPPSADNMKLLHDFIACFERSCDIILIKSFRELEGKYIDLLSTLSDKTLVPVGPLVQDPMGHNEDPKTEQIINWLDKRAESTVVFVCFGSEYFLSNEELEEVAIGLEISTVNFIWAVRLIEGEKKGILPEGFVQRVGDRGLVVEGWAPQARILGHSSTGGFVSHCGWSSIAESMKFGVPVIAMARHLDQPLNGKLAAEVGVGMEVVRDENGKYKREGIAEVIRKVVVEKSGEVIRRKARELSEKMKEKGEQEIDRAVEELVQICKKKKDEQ
# Assay: X-ray crystallography, co-crystal, […] Å
# Conditions: acceptor-binding pocket in N-terminal domain
structure (smiles),measurement,value
"CC(C)=CCC[C@](C)(O)[C@H]1CC[C@]2(C)[C@@H]1[C@H](O)C[C@@H]1[C@@]3(C)CC[C@H](O[C@@H]4O[C@H](CO)[C@@H](O)[C@H](O)[C@H]4O)C(C)(C)[C@@H]3CC[C@]12C [Rh2, Ginsenoside Rh2]","X-ray crystallography, co-crystal, 3.5 Å",we solved crystal structures of apo Pq3‐O‐UGT2 and its complex with Rh2
